Experimental data taken from patent US20140342025A1, “ARJUNOLIC ACID FOR INCREASING SEBUM PRODUCTION” (EVONIK INDUSTRIES AG, priority 2011, published 2014).

Test: Percutaneous absorption study on a pig skin model
Format: in vitro ADME
Conditions: arjunolic acid in combination with 1,2-pentanediol in cosmetic formulation vs. formulation without 1,2-pentanediol; FIG. 2
Description: In practice, the study was performed in accordance with a current protocol, as described for example in S. Richert, A. Schrader, K. Schrader, Int. J. Cosmet. Sci. 2003, 25, 5-13.

- bioavailability (skin penetration) as a function of solvent: increase in bioavailability
Compound: CC1(C)CC[C@]2(C(=O)O)CC[C@]3(C)C(=CC[C@@H]4[C@@]5(C)C[C@@H](O)[C@H](O)[C@@](C)(CO)[C@@H]5CC[C@]43C)[C@@H]2C1 [arjunolic acid]
